{"source": "patent US6451990B1", "about": "“Azithromycin preparation in its noncryst alline and crystalline dihydrate forms” (Astur-Pharma, S.A., priority 1999, dated 2002)", "key": {"[1]": {"test_system": "gram-positive and some cases of gram-negative bacteria", "details": "against gram-positive and some cases of gram-negative bacteria; Kirst, Sides 1989; cited from earlier work"}, "[2]": {"details": "cited from earlier work; for hygroscopicity of crystalline form: as described in EP 0,298,650"}, "[3]": {"experiment": "Hygroscopicity: water uptake under an atmosphere over 75% relative humidity", "type": "physicochemical", "details": "for water content: sample containing 3% water at start, atmosphere over 75% relative humidity", "experimental": "4. Hygroscopicity. Two different samples of non-crystalline azithromycin containing 3% water were kept under an atmosphere over 75% relative humidity. After 8 hours, water content in the first sample was 5.3%, while the second one contained 9.9% water after 72 hours."}}, "note": "Read-outs that look alike come from different tables or passages of the source.", "data": [{"smiles": "CC[C@H]1OC(=O)[C@H](C)[C@@H](O[C@H]2C[C@@](C)(OC)[C@@H](O)[C@H](C)O2)[C@H](C)[C@@H](O[C@@H]2O[C@H](C)C[C@H](N(C)C)[C@H]2O)[C@](C)(O)C[C@@H](C)CN(C)[C@H](C)[C@@H](O)[C@]1(C)O", "note": "[Azithromycin, 9-deoxo-9a-aza-9a-methyl-9a-homoerythromycin A]", "values": [{"measurement": "antimicrobial activity", "setting": "[1]", "value": "excellent antimicrobial activity"}]}, {"smiles": "CC[C@H]1OC(=O)[C@H](C)[C@@H](O[C@H]2C[C@@](C)(OC)[C@@H](O)[C@H](C)O2)[C@H](C)[C@@H](O[C@@H]2O[C@H](C)C[C@H](N(C)C)[C@H]2O)[C@](C)(O)C[C@@H](C)CN(C)[C@H](C)[C@@H](O)[C@]1(C)O", "note": "[azithromycin dihydrate, 9-deoxo-9a-aza-9a-methyl-9a-homoerythromycin A dihydrate]", "values": [{"measurement": "hygroscopicity of crystalline form", "setting": "[2]; dihydrate", "value": "non-hygroscopic"}, {"measurement": "percentile water content (kept constant)", "setting": "[2]; theoretical value 4.6%", "value": "4.5-5%"}]}, {"smiles": "CC[C@H]1OC(=O)[C@H](C)[C@@H](O[C@H]2C[C@@](C)(OC)[C@@H](O)[C@H](C)O2)[C@H](C)[C@@H](O[C@@H]2O[C@H](C)C[C@H](N(C)C)[C@H]2O)[C@](C)(O)C[C@@H](C)CN(C)[C@H](C)[C@@H](O)[C@]1(C)O", "note": "[azithromycin monohydrate]", "values": [{"measurement": "hygroscopicity of crystalline form", "setting": "[2]", "value": "hygroscopic"}]}, {"smiles": "CC[C@H]1OC(=O)[C@H](C)[C@@H](O[C@H]2C[C@@](C)(OC)[C@@H](O)[C@H](C)O2)[C@H](C)[C@@H](O[C@@H]2O[C@H](C)C[C@H](N(C)C)[C@H]2O)[C@](C)(O)C[C@@H](C)CN(C)[C@H](C)[C@@H](O)[C@]1(C)O", "note": "[non-crystalline azithromycin, non-crystalline 9-deoxo-9a-aza-9a-methyl-9a-homoerythromycin A]", "values": [{"measurement": "Hygroscopicity", "setting": "[3]; conclusion from water uptake over 75% relative humidity", "value": "moderately hygroscopic"}, {"measurement": "water content", "setting": "[3]; after 8 hours (first sample)", "value": 5.3, "unit": "%"}, {"measurement": "water content", "setting": "[3]; after 72 hours (second sample)", "value": 9.9, "unit": "%"}]}]}
